{
  "source": "paper PMC5218480",
  "about": "(PLoS ONE, 2017)",
  "tested_on": "MV-4-11 cells",
  "experiment": "Gene expression microarray analysis (Affymetrix PrimeView) and GSEA",
  "format": "cell-based, human",
  "parameters": "RFU PODN (11730768_x_at) / Fold change /veh PODN (11730768_x_at) / RFU LINC00158 (11744669_a_at) / Fold change /veh LINC00158 (11744669_a_at) / RFU DUSP10 (11751237_a_at) / Fold change /veh DUSP10 (11751237_a_at) / RFU ID3 (11757404_x_at) / Fold change /veh ID3 (11757404_x_at) / RFU PLEKHG5 (11737974_s_at) / Fold change /veh PLEKHG5 (11737974_s_at) / RFU LRRC4B (11730491_at) / Fold change /veh LRRC4B (11730491_at) / RFU GIMAP4 (11747438_a_at) / Fold change /veh GIMAP4 (11747438_a_at) / RFU KRT8 (11758183_x_at) / Fold change /veh KRT8 (11758183_x_at) / RFU CNN1 (11734310_a_at) / Fold change /veh CNN1 (11734310_a_at) / RFU VPS37D (11726825_at) / Fold change /veh VPS37D (11726825_at) / RFU C10orf10 (11716522_x_at) / Fold change /veh C10orf10 (11716522_x_at) / RFU KIR2DL2 /// KIR2DL4 /// KIR2DL5A /// KIR2DL5B /// KIR2DS1 /// KIR2DS2 /// KIR2DS3 /// KIR2DS4 /// KIR3DL3 /// KIR3DL3 /// KIR3DS1 (11738374_at) / Fold change /veh KIR2DL2 /// KIR2DL4 /// KIR2DL5A /// KIR2DL5B /// KIR2DS1 /// KIR2DS2 /// KIR2DS3 /// KIR2DS4 /// KIR3DL3 /// KIR3DL3 /// KIR3DS1 (11738374_at) / RFU C1QL1 (11718748_at) / Fold change /veh C1QL1 (11718748_at) / RFU TMPRSS4 (11747572_a_at) / Fold change /veh TMPRSS4 (11747572_a_at) / RFU HAMP (11756126_x_at) / Fold change /veh HAMP (11756126_x_at) / RFU RNFT2 (11725882_a_at) / Fold change /veh RNFT2 (11725882_a_at) / RFU NR4A2 (11747474_a_at) / Fold change /veh NR4A2 (11747474_a_at) / RFU ABCC12 (11746883_a_at) / Fold change /veh ABCC12 (11746883_a_at) / RFU TMEM136 (11760407_x_at) / Fold change /veh TMEM136 (11760407_x_at) / RFU CLDN22 /// WWC2 (11732394_at) / Fold change /veh CLDN22 /// WWC2 (11732394_at) / RFU HLA-DPB1 (11760878_x_at) / Fold change /veh HLA-DPB1 (11760878_x_at) / RFU SPINT1 (11716480_a_at) / Fold change /veh SPINT1 (11716480_a_at) / RFU GAP43 (11754022_s_at) / Fold change /veh GAP43 (11754022_s_at) / RFU A4GNT (11735810_at) / Fold change /veh A4GNT (11735810_at) / RFU PRB3 (11715151_x_at) / Fold change /veh PRB3 (11715151_x_at) / RFU TUBB4B (11761932_at) / Fold change /veh TUBB4B (11761932_at) / RFU CAPN14 (11732068_a_at) / Fold change /veh CAPN14 (11732068_a_at) / RFU TMCC2 (11721928_a_at) / Fold change /veh TMCC2 (11721928_a_at) / RFU IRGQ (11745062_a_at) / Fold change /veh IRGQ (11745062_a_at) / RFU FAM174B (11720279_a_at) / Fold change /veh FAM174B (11720279_a_at) / RFU TMPRSS4 (11748680_a_at) / Fold change /veh TMPRSS4 (11748680_a_at) / RFU FAM212B (11763350_a_at) / Fold change /veh FAM212B (11763350_a_at) / RFU PLEKHG5 (11743358_a_at) / Fold change /veh PLEKHG5 (11743358_a_at) / RFU ZSCAN30 (11745921_a_at) / Fold change /veh ZSCAN30 (11745921_a_at) / RFU CMKLR1 (11741424_a_at) / Fold change /veh CMKLR1 (11741424_a_at) / RFU LOC101060620 /// MAPK8IP1 (11723275_at) / Fold change /veh LOC101060620 /// MAPK8IP1 (11723275_at) / RFU SPTSSB (11747773_x_at) / Fold change /veh SPTSSB (11747773_x_at) / RFU PRSS12 (11739890_at) / Fold change /veh PRSS12 (11739890_at) / RFU BIN1 (11741810_x_at) / Fold change /veh BIN1 (11741810_x_at) / RFU WNT11 (11732464_a_at) / Fold change /veh WNT11 (11732464_a_at) / RFU C10orf10 (11716521_a_at) / Fold change /veh C10orf10 (11716521_a_at) / RFU C5orf56 (11738089_at) / Fold change /veh C5orf56 (11738089_at) / RFU CYB561 (11721691_x_at) / Fold change /veh CYB561 (11721691_x_at) / RFU ANKRD19P (11752326_a_at) / Fold change /veh ANKRD19P (11752326_a_at) / RFU OR2T12 /// OR2T33 /// OR2T8 (11738714_s_at) / Fold change /veh OR2T12 /// OR2T33 /// OR2T8 (11738714_s_at) / RFU VCAN (11748164_a_at) / Fold change /veh VCAN (11748164_a_at) / RFU JSRP1 (11732532_at) / Fold change /veh JSRP1 (11732532_at) / RFU KRTAP10-11 (11738290_x_at) / Fold change /veh KRTAP10-11 (11738290_x_at) / RFU MYO3A (11730013_a_at) / Fold change /veh MYO3A (11730013_a_at) / RFU EBF3 (11725865_a_at) / Fold change /veh EBF3 (11725865_a_at) / RFU CAMK2N1 (11719241_x_at) / Fold change /veh CAMK2N1 (11719241_x_at) / RFU C5orf56 (11738088_a_at) / Fold change /veh C5orf56 (11738088_a_at) / RFU OLFML3 (11715873_a_at) / Fold change /veh OLFML3 (11715873_a_at) / RFU LOC100653217 /// NTM (11731650_a_at) / Fold change /veh LOC100653217 /// NTM (11731650_a_at) / RFU MAPK11 (11762145_a_at) / Fold change /veh MAPK11 (11762145_a_at) / RFU FIZ1 (11724087_x_at) / Fold change /veh FIZ1 (11724087_x_at) / RFU OASL (11726364_x_at) / Fold change /veh OASL (11726364_x_at) / RFU SOX15 (11748057_x_at) / Fold change /veh SOX15 (11748057_x_at) / RFU CD79A (11719716_a_at) / Fold change /veh CD79A (11719716_a_at) / RFU HIST1H1D (11736915_at) / Fold change /veh HIST1H1D (11736915_at) / RFU CASKIN2 (11723855_a_at) / Fold change /veh CASKIN2 (11723855_a_at) / RFU LOC730098 (11760151_x_at) / Fold change /veh LOC730098 (11760151_x_at) / RFU OR4N2 (11742367_at) / Fold change /veh OR4N2 (11742367_at) / RFU PRRT2 (11749266_a_at) / Fold change /veh PRRT2 (11749266_a_at) / RFU SNX32 (11753110_a_at) / Fold change /veh SNX32 (11753110_a_at) / RFU CDHR5 (11726645_a_at) / Fold change /veh CDHR5 (11726645_a_at) / RFU RCAN1 (11760418_a_at) / Fold change /veh RCAN1 (11760418_a_at) / RFU FAM167A (11723789_a_at) / Fold change /veh FAM167A (11723789_a_at) / RFU FAM26E (11764081_at) / Fold change /veh FAM26E (11764081_at) / RFU ISYNA1 (11749810_s_at) / Fold change /veh ISYNA1 (11749810_s_at) / RFU ACY1 (11761880_at) / Fold change /veh ACY1 (11761880_at) / RFU 11764098_at / Fold change /veh 11764098_at / RFU SAMD14 (11745864_x_at) / Fold change /veh SAMD14 (11745864_x_at) / RFU NPB (11741838_a_at) / Fold change /veh NPB (11741838_a_at) / RFU TMPRSS6 (11731388_a_at) / Fold change /veh TMPRSS6 (11731388_a_at) / RFU KRTAP10-2 (11738614_at) / Fold change /veh KRTAP10-2 (11738614_at) / RFU ARHGAP8 /// PRR5-ARHGAP8 (11727945_x_at) / Fold change /veh ARHGAP8 /// PRR5-ARHGAP8 (11727945_x_at) / RFU KRTAP5-7 /// NADSYN1 (11734609_at) / Fold change /veh KRTAP5-7 /// NADSYN1 (11734609_at) / RFU RASL12 (11751679_a_at) / Fold change /veh RASL12 (11751679_a_at) / RFU CDKN2B (11736163_a_at) / Fold change /veh CDKN2B (11736163_a_at) / RFU PRF1 (11729649_at) / Fold change /veh PRF1 (11729649_at) / RFU, ZNF638 /// ZNF638-IT1 / Fold change vs veh, ZNF638 /// ZNF638-IT1 / RFU, PANK3 / Fold change vs veh, PANK3 / RFU, SH3YL1 / Fold change vs veh, SH3YL1 / RFU, ZEB2 / Fold change vs veh, ZEB2 / RFU, NRIP1 / Fold change vs veh, NRIP1 / RFU, PTTG1IP / Fold change vs veh, PTTG1IP / RFU, CAPN2 / Fold change vs veh, CAPN2 / RFU, MED14 / Fold change vs veh, MED14 / RFU, SNORA58 / Fold change vs veh, SNORA58 / RFU, C1orf63 / Fold change vs veh, C1orf63 / RFU, LRRFIP1 / Fold change vs veh, LRRFIP1 / RFU, NDUFAF7 / Fold change vs veh, NDUFAF7 / RFU, SLC12A2 / Fold change vs veh, SLC12A2 / RFU, IBTK / Fold change vs veh, IBTK / RFU, ESF1 / Fold change vs veh, ESF1 / Fold change vs veh, TMEM50B / RFU, TAOK1 / Fold change vs veh, TAOK1 / RFU, ACBD3 / Fold change vs veh, ACBD3 / RFU, TMA16 / Fold change vs veh, TMA16 / RFU, RWDD3 / Fold change vs veh, RWDD3 / RFU, BCAT1 / Fold change vs veh, BCAT1 / RFU, EDEM3 / Fold change vs veh, EDEM3 / RFU, TMEM33 / Fold change vs veh, TMEM33 / RFU, WDR75 / Fold change vs veh, WDR75 / RFU, AHCTF1 / Fold change vs veh, AHCTF1 / RFU, TFRC / Fold change vs veh, TFRC / RFU, ZDHHC17 / Fold change vs veh, ZDHHC17 / RFU, NOM1 / Fold change vs veh, NOM1 / RFU, ARL8B / Fold change vs veh, ARL8B / RFU, ZBTB11 / Fold change vs veh, ZBTB11 / RFU, TAMM41 / Fold change vs veh, TAMM41 / RFU, KIAA1704 /// LOC100996395 / Fold change vs veh, KIAA1704 /// LOC100996395 / RFU, ING1 / Fold change vs veh, ING1 / RFU, TRMT61B / Fold change vs veh, TRMT61B / RFU, FUBP3 / Fold change vs veh, FUBP3 / RFU, TP53 / Fold change vs veh, TP53 / RFU, TNKS2 / Fold change vs veh, TNKS2 / RFU, ZFP14 / Fold change vs veh, ZFP14 / RFU, ACTR2 / Fold change vs veh, ACTR2 / RFU, PPP3R1 / Fold change vs veh, PPP3R1 / RFU, PIK3R1 / Fold change vs veh, PIK3R1 / RFU, HNRNPA1 / Fold change vs veh, HNRNPA1 / RFU, RNF170 / Fold change vs veh, RNF170 / RFU, ZNF28 / Fold change vs veh, ZNF28 / RFU, RNGTT / Fold change vs veh, RNGTT / RFU, OGT / Fold change vs veh, OGT / RFU, BRD1 / Fold change vs veh, BRD1 / RFU, MARS / Fold change vs veh, MARS / RFU, ZNF655 / Fold change vs veh, ZNF655 / RFU, FAHD1 / Fold change vs veh, FAHD1 / RFU, BDP1 / Fold change vs veh, BDP1 / RFU, LRRCC1 / Fold change vs veh, LRRCC1 / RFU, ARID1A / Fold change vs veh, ARID1A / RFU, ZNF146 / Fold change vs veh, ZNF146 / RFU, ZNF330 / Fold change vs veh, ZNF330 / RFU, GPN3 / Fold change vs veh, GPN3 / RFU, C9orf123 / Fold change vs veh, C9orf123 / RFU, N4BP2L2 / Fold change vs veh, N4BP2L2 / RFU, ARFIP1 / Fold change vs veh, ARFIP1 / RFU, FAM179B / Fold change vs veh, FAM179B / RFU, BCL10 / Fold change vs veh, BCL10 / RFU, UHRF1BP1L / Fold change vs veh, UHRF1BP1L / RFU, BET1 / Fold change vs veh, BET1 / RFU, CNOT2 / Fold change vs veh, CNOT2 / RFU, ZNF268 / Fold change vs veh, ZNF268 / Fold change vs veh, ZNF507 / RFU, DGCR2 / Fold change vs veh, DGCR2 / RFU, WDSUB1 / Fold change vs veh, WDSUB1 / Fold change vs veh, HSP90B1 /// MIR3652 / RFU, ADSS / Fold change vs veh, ADSS / RFU, GK / Fold change vs veh, GK / RFU, ZNF148 / Fold change vs veh, ZNF148 / RFU, TAF9 / Fold change vs veh, TAF9 / RFU, SLC1A5 / Fold change vs veh, SLC1A5 / RFU, SLMO2 / Fold change vs veh, SLMO2 / RFU, ABCC4 / Fold change vs veh, ABCC4 / RFU, LOC101060439 /// RAP1B / Fold change vs veh, LOC101060439 /// RAP1B / RFU, RFX7 / Fold change vs veh, RFX7 / RFU, GTPBP10 / Fold change vs veh, GTPBP10 / RFU, CNEP1R1 / Fold change vs veh, CNEP1R1 / RFU, BIVM-ERCC5 /// ERCC5 / Fold change vs veh, BIVM-ERCC5 /// ERCC5 / RFU, ILF3 / Fold change vs veh, ILF3 / RFU 11762660_at / Fold change /veh 11762660_at / RFU VCAN (11757783_s_at) / Fold change /veh VCAN (11757783_s_at) / RFU DDX43 (11728927_at) / Fold change /veh DDX43 (11728927_at) / RFU KRT8 (11758188_x_at) / Fold change /veh KRT8 (11758188_x_at) / RFU NKD1 (11759106_at) / Fold change /veh NKD1 (11759106_at) / RFU SRD5A1 (11742802_a_at) / Fold change /veh SRD5A1 (11742802_a_at) / RFU TPSAB1 /// TPSB2 (11721975_s_at) / Fold change /veh TPSAB1 /// TPSB2 (11721975_s_at) / RFU GSTM3 (11746129_a_at) / Fold change /veh GSTM3 (11746129_a_at) / RFU IL23R (11737362_x_at) / Fold change /veh IL23R (11737362_x_at) / RFU TMEM51 (11727254_a_at) / Fold change /veh TMEM51 (11727254_a_at) / RFU PIWIL2 (11732686_x_at) / Fold change /veh PIWIL2 (11732686_x_at) / RFU ORM1 (11744905_x_at) / Fold change /veh ORM1 (11744905_x_at) / RFU CCDC152 (11743942_at) / Fold change /veh CCDC152 (11743942_at) / RFU ECM1 (11717891_a_at) / Fold change /veh ECM1 (11717891_a_at) / RFU IL23R (11748794_a_at) / Fold change /veh IL23R (11748794_a_at) / RFU TNFAIP8L3 (11732012_x_at) / Fold change /veh TNFAIP8L3 (11732012_x_at) / RFU MBOAT4 (11741988_at) / Fold change /veh MBOAT4 (11741988_at) / RFU 11764193_at / Fold change /veh 11764193_at / RFU TMEM53 (11763286_at) / Fold change /veh TMEM53 (11763286_at) / RFU MAGEB2 (11727129_at) / Fold change /veh MAGEB2 (11727129_at) / RFU TMEM200A (11744735_a_at) / Fold change /veh TMEM200A (11744735_a_at) / RFU CCDC152 (11751479_a_at) / Fold change /veh CCDC152 (11751479_a_at) / RFU FAM211A (11726209_a_at) / Fold change /veh FAM211A (11726209_a_at) / RFU RGS16 (11746705_a_at) / Fold change /veh RGS16 (11746705_a_at) / RFU VCAN (11755009_s_at) / Fold change /veh VCAN (11755009_s_at) / RFU RHOB (11743442_s_at) / Fold change /veh RHOB (11743442_s_at) / RFU RGS16 (11720943_a_at) / Fold change /veh RGS16 (11720943_a_at) / RFU RGS16 (11720944_at) / Fold change /veh RGS16 (11720944_at) / RFU, VPS4B / Fold change vs veh, VPS4B / RFU, CREB1 / Fold change vs veh, CREB1 / RFU, DNAJC13 / Fold change vs veh, DNAJC13 / RFU, GNAQ / Fold change vs veh, GNAQ / RFU, CDK5R1 / Fold change vs veh, CDK5R1 / RFU, ZRANB3 / Fold change vs veh, ZRANB3 / RFU, CUL4A / Fold change vs veh, CUL4A / RFU, CCNY / Fold change vs veh, CCNY / RFU, UFL1 / Fold change vs veh, UFL1 / RFU, COG3 / Fold change vs veh, COG3 / RFU, DIAPH2 / Fold change vs veh, DIAPH2 / RFU, SKA2 / Fold change vs veh, SKA2 / RFU, AFF3 / Fold change vs veh, AFF3 / RFU, LMF1 / Fold change vs veh, LMF1 / RFU, IPO11 / Fold change vs veh, IPO11 / RFU, DFFB / Fold change vs veh, DFFB / RFU, FOXP1 / Fold change vs veh, FOXP1 / RFU, CARD8 / Fold change vs veh, CARD8 / RFU, STRN3 / Fold change vs veh, STRN3 / RFU, ADK / Fold change vs veh, ADK / RFU, RASSF2 / Fold change vs veh, RASSF2 / RFU, WIPF1 / Fold change vs veh, WIPF1 / RFU, LARP1B / Fold change vs veh, LARP1B / RFU, RASA1 / Fold change vs veh, RASA1 / RFU, RB1 / Fold change vs veh, RB1 / RFU, PPFIA1 / Fold change vs veh, PPFIA1 / RFU, MAT2A / Fold change vs veh, MAT2A / RFU, CCT5 / Fold change vs veh, CCT5 / RFU, WDR92 / Fold change vs veh, WDR92 / RFU, CUX1 / Fold change vs veh, CUX1 / RFU, TTC7A / Fold change vs veh, TTC7A / RFU, TMEM135 / Fold change vs veh, TMEM135 / RFU, DEPTOR / Fold change vs veh, DEPTOR / RFU, CPM / Fold change vs veh, CPM / RFU, DNAJB6 / Fold change vs veh, DNAJB6 / RFU, CACNA2D3 / Fold change vs veh, CACNA2D3 / RFU, DTX4 / Fold change vs veh, DTX4 / RFU, TFCP2 / Fold change vs veh, TFCP2 / RFU, GMCL1 /// GMCL1P1 / Fold change vs veh, GMCL1 /// GMCL1P1 / RFU, AEBP2 / Fold change vs veh, AEBP2 / RFU, SNHG1 /// SNORD22 /// SNORD25 /// SNORD26 /// SNORD27 /// SNORD28 /// SNORD29 /// SNORD31 / Fold change vs veh, SNHG1 /// SNORD22 /// SNORD25 /// SNORD26 /// SNORD27 /// SNORD28 /// SNORD29 /// SNORD31 / Fold change (Aza/veh), C12orf56 (ProbeSet 11735607_a_at) / Fold change (ACY-1035/veh), C12orf56 (ProbeSet 11735607_a_at) / Fold change (Aza/veh), FGFR1OP (ProbeSet 11751329_s_at) / Fold change (ACY-1035/veh), FGFR1OP (ProbeSet 11751329_s_at) / Fold change (Aza/veh), VPS36 (ProbeSet 11739960_a_at) / Fold change (ACY-1035/veh), VPS36 (ProbeSet 11739960_a_at) / RFU SYPL1 (11715823_x_at) / Fold change /veh SYPL1 (11715823_x_at) / RFU IGFBP7 (11715501_s_at) / Fold change /veh IGFBP7 (11715501_s_at) / RFU REEP3 (11722064_at) / Fold change /veh REEP3 (11722064_at) / RFU IGLL1 (11728026_x_at) / Fold change /veh IGLL1 (11728026_x_at): dose or concentration left out as unconfirmed",
  "details": "ProbeSet 11725902_s_at; LIST D",
  "data": [
    {"smiles": "Nc1ncn([C@@H]2O[C@H](CO)[C@@H](O)[C@H]2O)c(=O)n1", "note": "[azacitidine]", "values": [
      {"measurement": "Fold change vs veh, TMEM135", "value": 0.57}
    ]}
  ]
}
